Experimental data published in patent publication US20210052701A1, “Methods of Treating Vascular Leakage Using CXCL12 Peptides” (The Medical College of Wisconsin, Inc., priority 2018, published 2021).
Where no end group is shown, it is not given here. [ ]: non-standard residue; d: D form. sY = N[C@@H](Cc1ccc(OS(=O)(=O)O)cc1)C(=O)O

Key:
[1] = tested on: hPPAEC; assay: In vitro vascular permeability assay (FITC-dextran), hPPAEC monolayer, CXCR4/ACKR3 ligands without thrombin; assay type: cell-based, human; details: 50 nM ligand for 10 min, then FITC-dextran; no thrombin
Method: FIGS. 1A-1B show expression of CXCR4, ACKR3 and CXCR4:ACKR3 heteromers on hPPAEC and effects of CXCR4/ACKR3 ligands on hPPAEC monolayer permeability. (A) Detection of CXCR4, ACKR3 and CXCR4:ACKR3 heteromers on hPPAEC by PLA. Typical PLA images for the detection of individual receptors and CXCR4:ACKR3 heteromers. Images show merged PLA/40,6-diamidino-2-phenylindole dihydrochloride (DAPI) signals. Ctrl: Omission of one secondary antibody. (B) hPPAEC were grown to a confluent monolayer on collagen-coated permeable membranes. Cells were then exposed to vehicle or 50 nM of CXCR4/ACKR3 ligands for 10 minutes, as indicated, followed by the addition of FITC-dextran. Endothelial permeability was assessed by measuring the amount of FITC-dextran that permeated through the cell monolayer. N=3 in quadruplicate. No cells: 100% permeability, open squares. RFU: Relative fluorescence units. *: p<0.05 vs. vehicle (2-way ANOVA/Bonferroni's multiple comparison post hoc test).
Cells and cell lines—Human primary pulmonary artery endothelial cells (hPPAEC) (ATCC, PCS-100-022) and the human lung microvascular endothelial cell line HULEC-5a (ATCC, CRL-3244) were cultured in vascular cell basal medium (ATCC, PCS-100-030) with endothelial cell growth kit-VEGF (ATCC, PCS-100-041). The HTLA cell line, a HEK293 cell line stably expressing a tTA-dependent luciferase reporter and a β-arrestin2-TEV fusion gene, was generously provided by the laboratory of Dr. Bryan Roth and maintained in high glucose Dulbecco's Modified Eagle's Medium supplemented with 10% (vol/vol) FBS, 1× non-essential amino acids, 100 U/mL penicillin, 100 μg/mL streptomycin, 50 μg/mL hygromycin B, and 2 μg/mL puromycin. All cells were cultured at 37° C., 5% CO2 in a humidified atmosphere.
(§1) In vitro vascular permeability assays—Permeability assays were obtained from Millipore (ECM642) and performed as per manufacturer's instructions. In brief, 96-well collagen-coated permeability assay plates were pre-hydrated for 15 min, 5×10^5 cells were seeded on each well and grown to a confluent monolayer for 48 hours. Fluorescein isothiocyanate (FITC)-dextran (20 μg/mL) was then added on top of the monolayer and the amount of FITC-dextran that permeated through the monolayer was quantified by measuring fluorescence in a Synergy 2 Multi-mode Microplate Reader (BioTek, Winooski, Vt.) at various time points over a 255 min time period.

[2] = tested on: HULEC-5a; assay: Effects of CXCL12 and ubiquitin on thrombin-induced impairment of HULEC-5a monolayer permeability; assay type: cell-based, human; details: thrombin 50 nM, after 10 min 50 nM ligand
Method: FIGS. 4A-4D show effects of CXCL12 and ubiquitin on thrombin-induced impairment of HULEC-5a monolayer permeability. (A) HULEC-5a were grown to a confluent monolayer on collagen-coated permeable membranes and then exposed to different concentration of thrombin for 10 min, followed by the addition of FITC-dextran. Endothelial permeability was assessed by measuring the amount of FITC-dextran that permeated through the cell monolayer. No cells: 100% permeability. RFU: Relative fluorescence units. N=3 in quadruplicate. (B) Dose-response curves for thrombin-induced permeability, data from A. 100% permeability=permeability in the absence of HULEC-5a. Open squares: Permeability at t=55 min. Light grey squares: Permeability at t=135 min. Dark grey squares: Permeability at t=255 min. […] Endothelial permeability was assessed by measuring the amount of FITC-dextran that permeated through the cell monolayer. RFU: Relative fluorescence units. […]
as §1, with “In brief, 96-well collagen-coated permeability assay plates were pre-hydrated for 15 min, 5×10^5 cells were seeded on each well and grown to a confluent monolayer for 48 hours.” left out

[3] = tested on: hPPAEC; assay: Effects of CXCR4 agonists / CXCL12 variants on thrombin-induced impairment of hPPAEC monolayer permeability; assay type: cell-based, human
Method: FIGS. 3A-3D show effects of CXCL12 and ubiquitin on thrombin-induced impairment of hPPAEC monolayer permeability. hPPAEC were grown to a confluent monolayer on collagen-coated permeable membranes. (A) hPPAEC were pre-treated with vehicle, 100 nM of CXCL12 or ubiquitin for 10 minutes, as indicated, and then exposed to thrombin (50 nM), followed by the addition of FITC-dextran. Vehicle: no thrombin. Endothelial permeability was assessed by measuring the amount of FITC-dextran that permeated through the cell monolayer. No cells: 100% permeability (open circles). RFU: Relative fluorescence units. N=3 in quadruplicate. *: p<0.05 vs. vehicle/thrombin. (B-D) hPPAEC were exposed to 35 nM of thrombin or vehicle. After 10 min, thrombin-exposed cells were treated with vehicle, CXCL12 (50 nM) and/or AMD3100 (10 μM) (B), with vehicle, ubiquitin (50 nM) and/or AMD3100 (10 μM) (C) or with various concentrations of ubiquitin (D) followed by the addition of FITC-dextran. The experimental conditions are indicated. Endothelial permeability was assessed by measuring the amount of FITC-dextran that permeated through the cell monolayer. RFU: Relative fluorescence units. N=3 in quadruplicate. *: p<0.05 vs. thrombin/vehicle (2-way ANOVA/Bonferroni's multiple comparison post hoc test).
(§2) FIGS. 7A-7D show dose-dependent effects of CXCL12α/β, CXCL12 (3-68) and CXCL12 mutants K27A/R41A/R47A, R47E and S-S4V on thrombin-induced impairment of hPPAEC monolayer permeability. hPPAEC cells were grown to a confluent monolayer on collagen-coated permeable membranes. hPPAEC were then exposed to 35 nM of thrombin. After 10 min, thrombin-exposed cells were treated with vehicle or 50 nM (A), 5 nM (B), 0.5 nM (C) or 0.05 nM (D) of the various proteins, as indicated. In (D) 5 nM CXCL12a was used as a positive control. N=3 in quadruplicate.
as §2, with “8A-8D” for “7A-7D”, “CXCL12α, CXCL121” for “CXCL12α/β, CXCL12 (3-68)”, “CXCL122” for “CXCL12 mutants K27A/R41A/R47A, R47E and S-S4V”, “CXCL12α” for “CXCL12a”
FIGS. 9A-9B show inhibition of thrombin-induced hyper-permeability of hPPAEC by CXCL12/CXCL12 variants. % inhibition: % inhibition of thrombin-induced hyperpermeability. Data from FIGS. 7 and 8 at t=255 min. N=3 in quadruplicate. *: p<0.05 vs. CXCL12a (2-way ANOVA/Bonferroni's multiple comparison post hoc test).
as §1

[4] = biological target: CXCL12 (Homo sapiens, UniProt P48061); assay: CXCL12 dimerization (biophysical measurements); assay type: binding; details: sulfopeptide bound to the sTyr21 recognition site
CXCL12, sequence (P48061 22-89 limits assumed): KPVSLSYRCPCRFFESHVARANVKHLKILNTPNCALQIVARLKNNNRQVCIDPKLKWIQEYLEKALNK
Source text: The present invention provides a constitutively monomeric CXCL12 variant (CXCL121) engineered to resist peptide-induced dimerization by maintaining steric repulsion of the chemokine helix. Six short CXCR4 peptides, centered on Tyr7, Tyr12, or Tyr21, were synthesized to study the contributions of individual sulfotyrosines in peptide binding and specificity. Peptides were titrated into CXCL12WT, CXCL122 (a constitutively dimeric variant of CXCL12 containing L36C/A65C mutations), or CXCL121 and the interaction was monitored by 2D NMR. While sulfopeptides encompassing sTyr7 and sTyr12 interacted nonspecifically, an […] Tyr7 peptide induced a new set of chemical shift perturbations in the CXCL12 monomer that were also observed upon binding of the intact CXCR41-38 N-terminal domain.

increase of the CXCL12 dimerization affinity [4]	Substance	effect on hPPAEC monolayer permeability [1]	effect on thrombin-mediated impairment of HULEC-5a barrier function when added after thrombin [2]	effect of pre-treatment on thrombin-induced hyper-permeability of hPPAEC ([3]; 100 nM for 10 min, then thrombin (50 nM))	effect on thrombin-induced permeability of hPPAEC when added after thrombin ([3]; thrombin 35 nM, after 10 min CXCL12 or ubiquitin 50 nM, AMD3100 10 μM)	effect on thrombin-induced hyper-permeability at various concentrations ([3]; thrombin 35 nM, ubiquitin 30 nM-3 μM after thrombin)	effect on thrombin-induced hyper-permeability, ubiquitin plus AMD3100 ([3]; thrombin 35 nM, ubiquitin 50 nM plus AMD3100 10 μM)
–	ubiquitin	did not affect hPPAEC permeability	significantly reduced thrombin-mediated impairment of endothelial cell barrier function	significantly attenuated thrombin-induced hyper-permeability of hPPAEC	did not modulate thrombin-induced hyper-permeability	did not attenuate thrombin-induced hyper-permeability	did not modulate thrombin-induced hyper-permeability
eight-fold	sTyr21 sulfopeptide: short CXCR4 peptide centered on sulfated Tyr21 (SGD[sY]DSM)	–	–	–	–	–	–
